{"source": "patent US20240027453A1", "about": "“METHOD FOR DETECTION AND QUANTITATIVE MONITORING OF INFECTIONS WITH HERPESVIRUSES” (The Trustees of Princeton University, priority 2020, published 2024)", "tested_on": "HCMV", "format": "cell-based", "details": "for UL36 (P16767) protein, numerical value of heatmap FIG. 6C / UL37 (P16778) protein, numerical value of heatmap FIG. 6C / UL122 (P19893) protein, numerical value of heatmap FIG. 6C / UL123 (P13202) protein, numerical value of heatmap FIG. 6C / IRS1 (P09715) protein, numerical value of heatmap FIG. 6C / TRS1 (P09695) protein, numerical value of heatmap FIG. 6C / UL13 (P16755) protein, numerical value of heatmap FIG. 6C: IE", "procedure": "In example herpesvirus PRM assay methods shown herein, cell pellets were lysed in 2% SDS, 100 mM NaCl, 0.5 mM EDTA, 50 mM Tris, pH 8.2, and 50 μg of protein was reduced and alkylated with 25 mM TCEP and 50 mM CAM respectively for 20 min at 70° C. Proteins were then precipitated via methanol chloroform precipitation (Wessel & Flugg, Anal Biochem. 138(1):141-143, 1984), resuspended in 50 mM HEPES, pH 8.2 and digested overnight with trypsin (50:1 protein:enzyme w/w ratio). Digested peptides were desalted by SDB-RPS StageTip as previously described (Lum et al., Cell Syst., 7(6):[…], 2018; Greco et al., Methods Mol Biol 1410:39-63, 2016; Federspiel & Cristea, Methods Mol Biol., 1977:115-143, 2019).\nPeptides (1.0 μg on column) were analyzed by LC-MS/MS using a Dionex Ultimate 3000 UHPLC coupled online to an EASYSpray ion source and a Q Exactive HF. Peptides were separated on an EASYSpray C18 column (75 μm×25 cm) heated to 50° C. using a linear gradient of 5% B to 32% B over 60 min at a flow rate of 250 nL/min and were ionized at 1.7 kv. Mobile phase A consisted of 0.1% FA in H2O and mobile phase B consisted of 0.1% FA, 2.9% H2O in ACN.\nThe PRM method was controlled by a peptide inclusion list with retention time windows of 6 min for selected precursor ions.\nThe PRM assay was developed and analyzed using the open-source software Skyline (Maclean et al., Bioinformatics 26(7):966-968, 2010). Summed area under the curve of 3-4 transitions per peptide was used for quantitation. Targeted peptides were normalized to host protein loading control peptides. Peptide values for each sample were scaled to the average of each peptide across all runs. The average of multiple peptides was used as the inferred value for the protein measurement when more than one peptide was quantified (Federspiel et al., PLoS Biol. 17(9):e3000437. Doi: 10.1371/journal.pbio.3000437). PRM quantitation data were graphed using the Python Seaborn and Matplotlib libraries.\nMRC5 primary human fibroblasts (HFs) (ATCC CCL-171) were used as the model system for HSV-1 and HCMV infections and were cultured in complete growth medium (DMEM supplemented with 10% fetal bovine serum and 1% penicillin-streptomycin antibiotics) at 37° C. and 5% CO2. iSLK.219 cells harboring latent KSHV (a gift from Dr. Britt Glaunsinger, University of California, Berkeley) were grown in complete growth medium supplemented with 500 μg/ml hygromycin (ThermoFisher Scientific, 10687010) at 37° C. and 5% CO2. All cells were used for experiments within a maximum of 10 passages.\nWild type HSV-1 strain 17+ (a gift from Beate Sodeik, Hannover Medical School, Hannover, Germany) was propagated as previously described (Diner et al., 2015). Briefly, PO stocks were generated by electroporating pBAC-HSV-1 into U-2 OS cells. […] In a similar manner, wild type HCMV strain AD169 was produced from BAC electroporation into HFs and working stocks were propagated by infecting HFs at a low level. In both cases, cell-associated virus was released by sonication, combined with supernatant virus, then concentrated by ultracentrifugation (20,000 rpm, 2 hours, 4° C. with SW28 swinging bucket rotor [Beckman Coulter]) over a 10% ficoll (HSV-1) or 20% sorbitol (HCMV) cushion. Virus stock titers were determined by plaque assay for HSV-1 or tissue culture infectious dose (TCID50) for HCMV and infections were performed at a multiplicity of infection (MOI) of 3.\n12 hours prior to virus infection or reactivation, cells were treated with either the small molecule drug or DMSO/PBS control at an equivalent volume. […] For infection cycles lasting longer than 24 hours, small molecule drugs were re-added to the cell culture medium every 24 hours. Upon collection, cells were rinsed with PBS, scraped into a microcentrifuge tube, pelleted by centrifugation, and rinsed again with PBS.", "note": "Where two headings read alike, the source gives them in different places.", "data": [{"smiles": "Nc1ccn(C[C@@H](CO)OCP(=O)(O)O)c(=O)n1", "note": "[CDV, cidofovir]", "values": [{"measurement": "UL36 (P16767) protein, numerical value of heatmap FIG. 6C", "setting": "timepoint 48", "value": 0.9304}, {"measurement": "UL37 (P16778) protein, numerical value of heatmap FIG. 6C", "setting": "timepoint 48", "value": 0.8657}, {"measurement": "UL122 (P19893) protein, numerical value of heatmap FIG. 6C", "setting": "timepoint 48", "value": 0.07563}, {"measurement": "UL123 (P13202) protein, numerical value of heatmap FIG. 6C", "setting": "timepoint 48", "value": 0.8515}, {"measurement": "IRS1 (P09715) protein, numerical value of heatmap FIG. 6C", "setting": "timepoint 72", "value": 1.017}, {"measurement": "TRS1 (P09695) protein, numerical value of heatmap FIG. 6C", "setting": "timepoint 72", "value": 0.9014}, {"measurement": "UL13 (P16755) protein, numerical value of heatmap FIG. 6C", "setting": "timepoint 72", "value": 0.8575}, {"measurement": "UL36 (P16767) protein, numerical value of heatmap FIG. 6C", "setting": "timepoint 72", "value": 0.8818}, {"measurement": "UL37 (P16778) protein, numerical value of heatmap FIG. 6C", "setting": "timepoint 72", "value": 1.038}, {"measurement": "UL122 (P19893) protein, numerical value of heatmap FIG. 6C", "setting": "timepoint 72", "value": 0.3738}, {"measurement": "UL123 (P13202) protein, numerical value of heatmap FIG. 6C", "setting": "timepoint 72", "value": 0.7924}, {"measurement": "IRS1 (P09715) protein, numerical value of heatmap FIG. 6C", "setting": "timepoint 96", "value": 0.9536}, {"measurement": "TRS1 (P09695) protein, numerical value of heatmap FIG. 6C", "setting": "timepoint 96", "value": 0.7893}, {"measurement": "UL13 (P16755) protein, numerical value of heatmap FIG. 6C", "setting": "timepoint 96", "value": 0.7965}, {"measurement": "UL36 (P16767) protein, numerical value of heatmap FIG. 6C", "setting": "timepoint 96", "value": 0.834}, {"measurement": "UL37 (P16778) protein, numerical value of heatmap FIG. 6C", "setting": "timepoint 96", "value": 0.936}, {"measurement": "UL122 (P19893) protein, numerical value of heatmap FIG. 6C", "setting": "timepoint 96", "value": 0.8676}, {"measurement": "UL123 (P13202) protein, numerical value of heatmap FIG. 6C", "setting": "timepoint 96", "value": 0.7732}, {"measurement": "IRS1 (P09715) protein, numerical value of heatmap FIG. 6C", "setting": "timepoint 120", "value": 1.003}, {"measurement": "TRS1 (P09695) protein, numerical value of heatmap FIG. 6C", "setting": "timepoint 120", "value": 1.103}, {"measurement": "UL13 (P16755) protein, numerical value of heatmap FIG. 6C", "setting": "timepoint 120", "value": 1.075}, {"measurement": "UL36 (P16767) protein, numerical value of heatmap FIG. 6C", "setting": "timepoint 120", "value": 1.234}, {"measurement": "UL37 (P16778) protein, numerical value of heatmap FIG. 6C", "setting": "timepoint 120", "value": 1.212}, {"measurement": "UL122 (P19893) protein, numerical value of heatmap FIG. 6C", "setting": "timepoint 120", "value": 1.141}, {"measurement": "UL123 (P13202) protein, numerical value of heatmap FIG. 6C", "setting": "timepoint 120", "value": 1.074}, {"measurement": "MCP (P16729) protein, numerical value of heatmap FIG. 6C", "setting": "L, timepoint 24", "value": 0.009303}, {"measurement": "UL25 (P16761) protein, numerical value of heatmap FIG. 6C", "setting": "L, timepoint 24", "value": 0.02316}, {"measurement": "UL29 (P16764) protein, numerical value of heatmap FIG. 6C", "setting": "L, timepoint 24", "value": 0.4352}, {"measurement": "UL31 (P16848) protein, numerical value of heatmap FIG. 6C", "setting": "L, timepoint 24", "value": 0.2632}, {"measurement": "UL43 (P16781) protein, numerical value of heatmap FIG. 6C", "setting": "L, timepoint 24", "value": 0.06898}, {"measurement": "UL52 (P16793) protein, numerical value of heatmap FIG. 6C", "setting": "L, timepoint 24", "value": 0.01391}, {"measurement": "UL80 (P16753) protein, numerical value of heatmap FIG. 6C", "setting": "L, timepoint 24", "value": 0.007269}, {"measurement": "UL82 (P06726) protein, numerical value of heatmap FIG. 6C", "setting": "L, timepoint 24", "value": 0.2135}, {"measurement": "UL94 (P16800) protein, numerical value of heatmap FIG. 6C", "setting": "L, timepoint 24", "value": 0.03193}, {"measurement": "UL99 (P13200) protein, numerical value of heatmap FIG. 6C", "setting": "L, timepoint 24", "value": 0.01797}, {"measurement": "UL103 (P16734) protein, numerical value of heatmap FIG. 6C", "setting": "L, timepoint 24", "value": 0.236}, {"measurement": "UL117 (P16770) protein, numerical value of heatmap FIG. 6C", "setting": "L, timepoint 24", "value": 0.1983}, {"measurement": "gH (P12824) protein, numerical value of heatmap FIG. 6C", "setting": "L, timepoint 24", "value": 0.03303}, {"measurement": "gL (P16832) protein, numerical value of heatmap FIG. 6C", "setting": "L, timepoint 24", "value": 0.03204}, {"measurement": "gM (P16733) protein, numerical value of heatmap FIG. 6C", "setting": "L, timepoint 24", "value": 0.0224}, {"measurement": "sp|P16809|IR11_HCMVA (P16809) protein, numerical value of heatmap FIG. 6C", "setting": "L, timepoint 24", "value": 0.04109}, {"measurement": "CVC1 (P16799) protein, numerical value of heatmap FIG. 6C", "setting": "L, timepoint 48", "value": 0.1142}, {"measurement": "MCP (P16729) protein, numerical value of heatmap FIG. 6C", "setting": "L, timepoint 48", "value": 0.01444}, {"measurement": "TRM2 (P16792) protein, numerical value of heatmap FIG. 6C", "setting": "L, timepoint 48", "value": 0.0613}, {"measurement": "UL22A (P16845) protein, numerical value of heatmap FIG. 6C", "setting": "L, timepoint 48", "value": 0.07025}, {"measurement": "UL25 (P16761) protein, numerical value of heatmap FIG. 6C", "setting": "L, timepoint 48", "value": 0.06426}, {"measurement": "UL29 (P16764) protein, numerical value of heatmap FIG. 6C", "setting": "L, timepoint 48", "value": 0.6305}, {"measurement": "UL31 (P16848) protein, numerical value of heatmap FIG. 6C", "setting": "L, timepoint 48", "value": 0.2379}, {"measurement": "UL43 (P16781) protein, numerical value of heatmap FIG. 6C", "setting": "L, timepoint 48", "value": 0.09529}, {"measurement": "UL52 (P16793) protein, numerical value of heatmap FIG. 6C", "setting": "L, timepoint 48", "value": 0.08671}, {"measurement": "UL80 (P16753) protein, numerical value of heatmap FIG. 6C", "setting": "L, timepoint 48", "value": 0.04081}]}]}
